From ChEMBL document CHEMBL1255295, “Convergent in vivo and in vitro selection of ceftazidime resistance mutations at position 167 of CTX-M-3 beta-lactamase in hypermutable Escherichia coli strains” (2008)
≈ marks a conversion by molar mass, not a printed value.

What was measured:
Escherichia coli [1] = assay: Antimicrobial activity against Escherichia coli AB14156 harboring beta-lactamase CTX-M-42 Pro167Thr mutant gene by agar dilution method; format: functional
Escherichia coli [2] = assay: Antimicrobial activity against Escherichia coli EPI300 transformant harboring pCC1 by agar dilution method; format: functional
Escherichia coli [3] = assay: Antimicrobial activity against Escherichia coli EPI300 harboring pCC1 carrying beta-lactamase CTX-M-42 Pro167Thr mutant gene by agar dilution method; format: functional
Escherichia coli [4] = assay: Antimicrobial activity against Escherichia coli EPI300 harboring pCC1 carrying beta-lactamase CTX-M-3 gene by agar dilution method; format: functional
Escherichia coli [5] = assay: Antimicrobial activity against Escherichia coli Irk1224 harboring beta-lactamase CTX-M-3 by agar dilution method; format: functional
Escherichia coli [6] = assay: Antimicrobial activity against ceftazidime-resistant Escherichia coli Irk2320 harboring beta-lactamase CTX-M-42 Pro167Thr mutant gene by agar dilution method; format: functional
Escherichia coli [7] = assay: Antimicrobial activity against ceftazidime-resistant Escherichia coli Irk2322 harboring beta-lactamase CTX-M-42 Pro167Thr mutant gene by agar dilution method; format: functional
Escherichia coli [8] = assay: Antimicrobial activity against Escherichia coli EPI300 harboring pCC1 carrying beta-lactamase CTX-M-3 by agar dilution method in presence of beta-lactamase inhibitor clavulanic acid
Escherichia coli [9] = assay: Antimicrobial activity against Escherichia coli EPI300 harboring pCC1 carrying beta-lactamase CTX-M-42 Pro167Thr mutant gene by agar dilution method in presence of beta-lactamase inhibitor clavulanic acid
Escherichia coli [10] = assay: Antimicrobial activity against ceftazidime-resistant Escherichia coli Irk2322 harboring beta-lactamase CTX-M-42 Pro167Thr mutant gene by agar dilution method in presence of beta-lactamase inhibitor clavulanic acid
Escherichia coli [11] = assay: Antimicrobial activity against Escherichia coli Irk1224 harboring beta-lactamase CTX-M-3 by agar dilution method in presence of beta-lactamase inhibitor clavulanic acid
Escherichia coli [12] = assay: Antimicrobial activity against Escherichia coli EPI300 harboring plasmid pCC1 by agar dilution method in presence of beta-lactamase inhibitor clavulanic acid
Escherichia coli [13] = assay: Antimicrobial activity against Escherichia coli AB14156 harboring beta-lactamase CTX-M-42 Pro167Thr mutant gene by agar dilution method in presence of beta-lactamase inhibitor clavulanic acid
Escherichia coli [14] = assay: Antimicrobial activity against ceftazidime-resistant Escherichia coli Irk2320 harboring beta-lactamase CTX-M-42 Pro167Thr mutant gene by agar dilution method in presence of beta-lactamase inhibitor clavulanic acid
Escherichia coli [15] = assay: Antimicrobial activity against Escherichia coli Irk1224 type 3 mutant harboring beta-lactamase CTX-M-3 Lys136 mutant gene by agar dilution method; format: functional
Escherichia coli [16] = assay: Antimicrobial activity against Escherichia coli EPI300 Irk1224 type 2 mutant harboring beta-lactamase CTX-M-3 Ser167 mutant gene by agar dilution method
Escherichia coli [17] = assay: Antimicrobial activity against Escherichia coli EPI300 Irk1224 type 3 mutant harboring CTX-M-3 beta-lactamase Lys136 mutant gene by agar dilution method
Escherichia coli [18] = assay: Antimicrobial activity against Escherichia coli GM2995 harboring plasmid pCC1 carrying beta-lactamase CTX-M-3 from by agar dilution method; format: functional
Escherichia coli [19] = assay: Antimicrobial activity against Escherichia coli EPI300 harboring GM2995 pCC1 carrying beta-lactamase CTX-M-3 Ser167 mutant gene by agar dilution method
Escherichia coli [20] = assay: Antimicrobial activity against Escherichia coli EPI300 harboring GM2995 pCC1 carrying beta-lactamase CTX-M-3 gene by agar dilution method; format: functional
Escherichia coli [21] = assay: Antimicrobial activity against Escherichia coli GM2995 harboring plasmid pCC1 carrying beta-lactamase CTX-M-3 gene by agar dilution method; format: functional
Escherichia coli [22] = assay: Antimicrobial activity against Escherichia coli EPI300 Irk1224 type 1 mutant harboring beta-lactamase CTX-M-3 gene by agar dilution method; format: functional
Escherichia coli [23] = assay: Antimicrobial activity against Escherichia coli GM2995 harboring plasmid pCC1 carrying beta-lactamase CTX-M-3 Ser167 mutant gene by agar dilution method
Escherichia coli [24] = assay: Antimicrobial activity against Escherichia coli Irk1224 type 2 mutant harboring beta-lactamase CTX-M-3 Ser167 mutant gene by agar dilution method; format: functional
Escherichia coli [25] = assay: Antimicrobial activity against Escherichia coli EPI300 harboring GM2995 pCC1-1224 carrying CTX-M-3 beta-lactamase gene from by agar dilution method; format: functional
Escherichia coli [26] = assay: Antimicrobial activity against Escherichia coli Irk1224 type 1 mutant harboring beta-lactamase CTX-M-3 by agar dilution method; format: functional

| Structure (SMILES) | MIC (Escherichia coli [1]) | MIC (Escherichia coli [2]) | MIC (Escherichia coli [3]) | MIC (Escherichia coli [4]) | MIC (Escherichia coli [5]) | MIC (Escherichia coli [6]) | MIC (Escherichia coli [7]) | MIC (Escherichia coli [8]) | MIC (Escherichia coli [9]) | MIC (Escherichia coli [10]) | MIC (Escherichia coli [11]) | MIC (Escherichia coli [12]) | MIC (Escherichia coli [13]) | MIC (Escherichia coli [14]) | MIC (Escherichia coli [15]) | MIC (Escherichia coli [16]) | MIC (Escherichia coli [17]) | MIC (Escherichia coli [18]) | MIC (Escherichia coli [19]) | MIC (Escherichia coli [21]) | further results |
| --- | --- | --- | --- | --- | --- | --- | --- | --- | --- | --- | --- | --- | --- | --- | --- | --- | --- | --- | --- | --- | --- |
| CO/N=C(\C(=O)N[C@@H]1C(=O)N2C(C(=O)[O-])=C(C[N+]3(C)CCCC3)CS[C@H]12)c1csc(N)n1 | 1 µg/mL (≈ 2.08 µM) | 0.06 µg/mL (≈ 0.125 µM) | 0.25 µg/mL (≈ 0.52 µM) | 0.5 µg/mL (≈ 1.04 µM) | 32 µg/mL (≈ 66.6 µM) | 1 µg/mL (≈ 2.08 µM) | 1 µg/mL (≈ 2.08 µM) | – | – | – | – | – | – | – | – | – | – | – | – | – | – |
| CC1(C)S[C@@H]2[C@H](NC(=O)[C@H](N)c3ccc(O)cc3)C(=O)N2[C@H]1C(=O)O [AMOXICILLIN] | 16 µg/mL (≈ 43.8 µM) | 2 µg/mL (≈ 5.47 µM) | 8 µg/mL (≈ 21.9 µM) | 8 µg/mL (≈ 21.9 µM) | 32 µg/mL (≈ 87.6 µM) | 16 µg/mL (≈ 43.8 µM) | 16 µg/mL (≈ 43.8 µM) | 4 µg/mL | 4 µg/mL | 8 µg/mL | 16 µg/mL | 1 µg/mL | 8 µg/mL | 8 µg/mL | – | – | – | – | – | – | – |
| CC1(C)S[C@@H]2[C@H](NC(=O)[C@H](N)c3ccccc3)C(=O)N2[C@H]1C(=O)O [AMPICILLIN] | ≥ 256 µg/mL | – | ≥ 256 µg/mL | ≥ 256 µg/mL | ≥ 256 µg/mL | ≥ 256 µg/mL | ≥ 256 µg/mL | – | – | – | – | – | – | – | ≥ 256 µg/mL | 128 µg/mL (≈ 366 µM) | 32 µg/mL (≈ 91.6 µM) | ≥ 256 µg/mL | 128 µg/mL (≈ 366 µM) | ≥ 256 µg/mL | MIC (Escherichia coli [20]): ≥ 256 µg/mL; MIC (Escherichia coli [22]): ≥ 256 µg/mL; MIC (Escherichia coli [23]): 128 µg/mL (≈ 366 µM); MIC (Escherichia coli [24]): ≥ 256 µg/mL; MIC (Escherichia coli [25]): ≥ 256 µg/mL; MIC (Escherichia coli [26]): ≥ 256 µg/mL |
| CO/N=C(\C(=O)N[C@@H]1C(=O)N2C(C(=O)O)=C(COC(C)=O)CS[C@H]12)c1csc(N)n1 [CEFOTAXIME] | – | – | – | – | – | – | – | 4 µg/mL | 4 µg/mL | 4 µg/mL | 4 µg/mL | 4 µg/mL | 4 µg/mL | 4 µg/mL | 64 µg/mL (≈ 141 µM) | 1 µg/mL (≈ 2.2 µM) | 1 µg/mL (≈ 2.2 µM) | ≥ 256 µg/mL | 1 µg/mL (≈ 2.2 µM) | 4 µg/mL (≈ 8.78 µM) | MIC (Escherichia coli [23]): 1 µg/mL (≈ 2.2 µM); MIC (Escherichia coli [24]): 64 µg/mL (≈ 141 µM); MIC (Escherichia coli [26]): ≥ 256 µg/mL |
| CC(C)(O/N=C(\C(=O)N[C@@H]1C(=O)N2C(C(=O)[O-])=C(C[n+]3ccccc3)CS[C@H]12)c1csc(N)n1)C(=O)O [CEFTAZIDIME] | – | 0.25 µg/mL (≈ 0.457 µM) | – | – | – | – | – | 4 µg/mL | 4 µg/mL | 4 µg/mL | 4 µg/mL | 4 µg/mL | 4 µg/mL | 4 µg/mL | ≥ 256 µg/mL | 16 µg/mL (≈ 29.3 µM) | 8 µg/mL (≈ 14.6 µM) | 32 µg/mL (≈ 58.5 µM) | 16 µg/mL (≈ 29.3 µM) | 1 µg/mL (≈ 1.83 µM) | MIC (Escherichia coli [20]): 1 µg/mL (≈ 1.83 µM); MIC (Escherichia coli [22]): 1 µg/mL (≈ 1.83 µM); MIC (Escherichia coli [23]): 32 µg/mL (≈ 58.5 µM); MIC (Escherichia coli [24]): ≥ 256 µg/mL; MIC (Escherichia coli [25]): 1 µg/mL (≈ 1.83 µM); MIC (Escherichia coli [26]): ≥ 256 µg/mL |
| CO/N=C(\C(=O)N[C@@H]1C(=O)N2C(C(=O)O)=C(CSc3nc(=O)c(O)nn3C)CS[C@H]12)c1csc(N)n1 [CEFTRIAXONE] | 8 µg/mL (≈ 14.4 µM) | 0.06 µg/mL (≈ 0.108 µM) | 1 µg/mL (≈ 1.8 µM) | 4 µg/mL (≈ 7.21 µM) | ≥ 256 µg/mL | 8 µg/mL (≈ 14.4 µM) | 8 µg/mL (≈ 14.4 µM) | – | – | – | – | – | – | – | – | – | – | – | – | – | – |
